Assay results: US5175100A, “Stereospecific resolution by hydrolysis of esters of 2-arylpropionic acids by liver enzymes” (Rhone-Poulenc, Inc., priority 1991, dated 1992)

Columns and labels:
Type in all cases: biochemical
[1] = system: Liver acetone powder from Bovine; assay: Hydrolysis of ketoprofen esters by bovine liver acetone powder
Procedure: (§1) A solution of 50 mg of ketoprofen methyl ester in 0.2 ml of ethanol was added to 10 mg of each of liver acetone powder from various animal sources (described in Table 1) in 5 ml of 0.1M potassium phosphate buffer (pH 7.0) After shaking at room temperature for 24 hours, the reaction mixtures were acidified to pH 2.0 with 6(N) HCl and extracted with 10 ml of ethyl acetate. A portion of the ethyl acetate extract was analyzed by HPLC on a Partisil 5 ODS-3 RAC column (9.4 mm×100 mm, Whatman) using a mixture of methanol and 10 mM ammonium dihydrogen phospate (9:1) and monitored by UV at 254 nm to determine the percentages of acid produced in the reaction.
(§2) To determine the percentage of R- and S-acid, a portion of the ethyl acetate extract was converted to the amide derivative of the acid produced with R(+)-1-phenylethylamine as follows. The ethyl acetate extract (5 ml) was dried over sodium sulfate, filtered and cooled to 0° C. To the cold solution was added 0.2 ml of N-methylmorpholine followed by 0.2 ml of isobutyl chloroformate. After gentle shaking at 0° C. for 10 minutes, 0.2 ml of R(+)-1-phenylethylamine was added and the shaking was continued at 0° C. for 5 minutes and at room temperature for another 5 minutes. The reaction mixture was washed successively with water (5 ml), 1(N) HCl (5 ml), and water (5 ml) to provide the amide derivative in ethyl acetate solution. The ethyl acetate solution of the amide derivative was then analyzed by HPLC on the same column and same solvent mixture but with a different composition, i.e., a ratio of 6:4, and monitored by UV to determine the percentages of R- acid and S-acids produced by hydrolysis. The enantiomeric excess (EE) is defined as the difference in percent between the percent R- acid and the percent S-acid, the higher enantiomer being reported in the parenthesis in Table I.
Several esters of ketoprofen (0.2 millimole) with various alkyl groups of varying chain length were hydrolyzed using liver acetone powders from bovine, calf and dog by the procedure described in Example 1. The reaction mixtures were analyzed by the same procedures as described in Example 1 and the results obtained are summarized in Table II.

[2] = system: Liver acetone powder from Cat; assay: Hydrolysis of ketoprofen methyl ester by cat liver acetone powder
Procedure: as §1, §2

[3] = system: Liver acetone powder from Goat; assay: Hydrolysis of ketoprofen methyl ester by goat liver acetone powder
Procedure: as §1, §2

[4] = system: Liver acetone powder from Rat; assay: Hydrolysis of ketoprofen methyl ester by rat liver acetone powder
Procedure: as §1, §2

[5] = Bovine powder 10 mg, 50 mg ester, pH 7.0, room temperature, 24 hours
[6] = Bovine powder, 0.2 millimole ester, procedure of Example 1
[7] = Cat powder 10 mg, 50 mg ester, pH 7.0, room temperature, 24 hours
[8] = Goat powder 10 mg, 50 mg ester, pH 7.0, room temperature, 24 hours
[9] = Rat powder 10 mg, 50 mg ester, pH 7.0, room temperature, 24 hours

COC(=O)C(C)c1cccc(C(=O)c2ccccc2)c1 (centres unmarked) [Methyl Ester of Ketoprofen, ketoprofen methyl ester]
Percentage of Acid R-acid [1, 5]: 71.2% | Percentage of Acid S-acid [1, 5]: 28.8% | Percentage of acid [1, 5]: 4.3% | Acid Produced (%) [1, 6]: 4.4% | EE(%) of R-Acid [1, 6]: 47.2% | Percent of Acid R-Acid [1, 6]: 73.6% | Percent of Acid S-Acid [1, 6]: 26.4% | Percentage EE of acid (R or S) ([1]; Bovine powder, Table 1, higher enantiomer (R)): 42.4% | Percentage of Acid R-acid [2, 7]: 64.1% | Percentage of Acid S-acid [2, 7]: 35.9% | Percentage of acid [2, 7]: 7.2% | Percentage EE of acid (R or S) ([2]; Cat powder, Table 1, higher enantiomer (R)): 28.2% | Percentage of Acid R-acid [3, 8]: 42.3% | Percentage of Acid S-acid [3, 8]: 57.7% | Percentage of acid [3, 8]: 15.5% | Percentage EE of acid (R or S) ([3]; Goat powder, Table 1, higher enantiomer (S)): 15.4% | Percentage of Acid R-acid [4, 9]: 52.7% | Percentage of Acid S-acid [4, 9]: 47.3% | Percentage of acid [4, 9]: 7.5% | Percentage EE of acid (R or S) ([4]; Rat powder, Table 1, higher enantiomer (R)): 5.4%
